Source: patent EP3653608A1, “ISOQUINOLINE BIARYL COMPOUNDS, A PHARMACEUTICAL COMPOSITION COMPRISING THE SAME, AND USES THEREOF” (Ludwig-Maximilians-Universität München, priority 2018, dated 2020)
pIC50: −log10 of the molar value. “Also recorded” adds a separate entry of the source. Where two headings read alike, the source gives them in different places. Values belong to the compound of their own block, whether it stands above or below them.

Assays:
[1] = tested on: HL60 cell line; experiment: Antiproliferative MTT assay, HL60 cell line; type: cell-based; details: Homo sapiens, HL-60, 48 h incubation
[2] = target: CYP2C9 (Homo sapiens, UniProt P11712); experiment: in vitro; details: probe fluorogenic CYP substrate (not named)
Chain of CYP2C9 (P11712 whole entry): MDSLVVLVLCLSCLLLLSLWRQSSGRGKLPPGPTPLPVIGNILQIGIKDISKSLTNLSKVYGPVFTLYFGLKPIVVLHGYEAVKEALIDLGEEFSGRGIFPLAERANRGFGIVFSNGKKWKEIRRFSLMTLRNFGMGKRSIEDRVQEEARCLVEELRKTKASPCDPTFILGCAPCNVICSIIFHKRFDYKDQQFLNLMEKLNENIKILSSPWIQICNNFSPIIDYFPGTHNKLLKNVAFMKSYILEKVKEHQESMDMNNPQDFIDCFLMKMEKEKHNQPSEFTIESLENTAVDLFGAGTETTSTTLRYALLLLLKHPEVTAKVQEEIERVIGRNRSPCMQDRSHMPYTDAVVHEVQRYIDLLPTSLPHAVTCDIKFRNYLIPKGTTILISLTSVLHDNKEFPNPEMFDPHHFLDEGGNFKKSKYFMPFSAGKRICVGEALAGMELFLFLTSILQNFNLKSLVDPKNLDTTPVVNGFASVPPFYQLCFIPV

[3] = target: T1, CYP1A2 (Homo sapiens, UniProt P05177); experiment: Cytochrome P450 inhibition with fluorogenic substrate, CYP1A2; details: CYP1A2, 10 µM, 10 minute preincubation, 25 minute reaction
T1 sequence (P05177 1-516): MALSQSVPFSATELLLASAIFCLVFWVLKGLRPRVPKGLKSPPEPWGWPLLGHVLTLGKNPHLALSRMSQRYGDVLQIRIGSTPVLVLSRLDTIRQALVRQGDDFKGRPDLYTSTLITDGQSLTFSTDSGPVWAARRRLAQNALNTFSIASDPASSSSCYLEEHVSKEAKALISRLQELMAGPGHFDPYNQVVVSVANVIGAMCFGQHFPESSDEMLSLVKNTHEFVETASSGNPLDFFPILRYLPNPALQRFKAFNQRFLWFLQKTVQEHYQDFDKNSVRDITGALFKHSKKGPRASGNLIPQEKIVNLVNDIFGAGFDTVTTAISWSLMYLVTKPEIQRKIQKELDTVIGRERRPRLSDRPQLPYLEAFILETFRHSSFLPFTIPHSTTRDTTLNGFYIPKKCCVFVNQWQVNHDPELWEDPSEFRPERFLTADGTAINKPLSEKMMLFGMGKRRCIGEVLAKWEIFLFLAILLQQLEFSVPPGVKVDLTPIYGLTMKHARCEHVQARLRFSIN

[4] = target: CYP3A4 (Homo sapiens, UniProt P08684); experiment: in vitro; details: probe fluorogenic CYP substrate (not named)
Chain of CYP3A4 (P08684 whole entry): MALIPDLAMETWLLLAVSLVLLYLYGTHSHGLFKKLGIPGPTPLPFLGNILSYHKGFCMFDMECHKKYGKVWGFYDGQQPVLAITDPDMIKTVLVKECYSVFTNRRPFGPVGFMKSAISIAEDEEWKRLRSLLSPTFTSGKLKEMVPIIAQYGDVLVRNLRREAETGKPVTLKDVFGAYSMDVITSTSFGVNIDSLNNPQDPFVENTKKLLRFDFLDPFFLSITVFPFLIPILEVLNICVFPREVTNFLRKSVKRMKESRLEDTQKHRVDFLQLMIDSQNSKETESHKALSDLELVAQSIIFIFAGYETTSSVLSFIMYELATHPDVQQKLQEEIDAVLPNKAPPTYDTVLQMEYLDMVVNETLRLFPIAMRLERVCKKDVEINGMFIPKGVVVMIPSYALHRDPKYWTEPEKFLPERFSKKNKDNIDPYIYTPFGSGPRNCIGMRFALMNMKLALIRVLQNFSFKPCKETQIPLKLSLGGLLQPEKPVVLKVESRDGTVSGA

[5] = tested on: HeLa cell line; experiment: Antiproliferative MTT assay, HeLa cell line; type: cell-based; details: Homo sapiens
[6] = target: CYP2D6 (Homo sapiens, UniProt P10635); experiment: in vitro; details: probe fluorogenic CYP substrate (not named)
Chain of CYP2D6 (P10635 whole entry): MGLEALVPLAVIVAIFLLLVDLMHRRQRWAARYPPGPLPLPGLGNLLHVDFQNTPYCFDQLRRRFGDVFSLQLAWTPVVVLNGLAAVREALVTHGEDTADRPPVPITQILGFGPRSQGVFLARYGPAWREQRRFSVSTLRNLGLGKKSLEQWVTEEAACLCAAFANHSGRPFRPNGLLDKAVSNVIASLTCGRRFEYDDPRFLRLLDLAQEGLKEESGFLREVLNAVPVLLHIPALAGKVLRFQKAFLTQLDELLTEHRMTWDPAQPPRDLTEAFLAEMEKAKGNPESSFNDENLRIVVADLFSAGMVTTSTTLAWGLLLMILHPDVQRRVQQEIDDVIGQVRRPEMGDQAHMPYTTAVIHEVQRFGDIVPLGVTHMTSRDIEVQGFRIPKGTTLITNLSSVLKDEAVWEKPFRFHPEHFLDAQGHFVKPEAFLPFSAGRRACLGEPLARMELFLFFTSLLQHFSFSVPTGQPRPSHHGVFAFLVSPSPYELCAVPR

[7] = physchem; details: pH 7.4
[8] = human, 40 min, 2 uM
[9] = Metabolic stability in mouse liver microsomes; details: 2 uM, over 40 minutes, 37°C
[10] = target: CYP2C19 (Homo sapiens, UniProt P33261); experiment: Cytochrome P450 inhibition with fluorogenic substrate, CYP2C19; details: CYP2C19, 10 µM, 10 minute preincubation, 60 min reaction
Chain of CYP2C19 (P33261 whole entry): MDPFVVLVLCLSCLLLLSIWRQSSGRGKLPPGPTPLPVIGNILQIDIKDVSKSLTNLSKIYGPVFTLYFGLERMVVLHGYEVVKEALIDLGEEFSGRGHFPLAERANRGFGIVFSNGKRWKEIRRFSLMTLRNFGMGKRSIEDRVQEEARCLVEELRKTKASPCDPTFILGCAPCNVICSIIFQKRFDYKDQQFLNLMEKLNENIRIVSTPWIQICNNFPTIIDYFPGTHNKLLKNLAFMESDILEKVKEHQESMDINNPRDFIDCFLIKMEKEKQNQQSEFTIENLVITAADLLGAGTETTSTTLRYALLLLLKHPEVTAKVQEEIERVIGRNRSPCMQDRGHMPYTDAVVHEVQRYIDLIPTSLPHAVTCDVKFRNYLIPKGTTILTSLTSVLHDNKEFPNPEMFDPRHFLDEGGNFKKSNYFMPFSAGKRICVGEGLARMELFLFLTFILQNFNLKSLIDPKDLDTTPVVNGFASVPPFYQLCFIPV

[11] = tested on: microtubule network; experiment: Microtubule perturbation in cellulo, immunofluorescence staining of α-tubulin; type: cell-based, human; details: HeLa cells, 24 h incubation, A-2 in PBS, A-3 with 0.25% DMSO cosolvent
[12] = tested on: tubulin polymerisation dynamics; experiment: Inhibition of tubulin polymerisation dynamics in cellulo, confocal video microscopy of EB3-YFP comets; type: cell-based, human; details: 0.24 µM, live HeLa cells expressing EB3-YFP
Source text: In videos this marker manifests as bright well-defined moving "comets", and in still images as bright elongated streaks, when MTs are polymerising normally as in the control image (frame "ctrl"). […] "DMSO ctrl" denotes the cosolvent control for the A-3 images (i.e. 0.25% DMSO but no compound) while "PBS ctrl" denotes the control for the A-2 images (no compound or cosolvent applied); these controls show the expected structure of the microtubule network when no inhibition is applied.

[13] = tested on: HeLa cells; experiment: Cell cycle analysis by flow cytometry, propidium iodide staining; type: cell-based, human; details: 24 h incubation, propidium iodide DNA staining, phosphate
[14] = tested on: Balb/c mice; experiment: Safe dosing parameters in vivo in mice

- pIC50 [1]: 7.00
- inhibition at 25 min, 10 µM [2]: 13 to 19%
- inhibition [3]: zero
- inhibition at 25 min, 10 µM [4]: 13 to 19%
- pIC50 ([5]; HeLa cell line, MTT assay, 48 h incubation, read-out: IC50): 6.62
- inhibition at 25 min, 10 µM [6]: 13 to 19%
- logD [7]: 2.18
- degradation [8]: 31%
- degradation [9]: 33%
- apparent enhancement of activity [10]: 50%
SMILES: COc1cc2c(-c3cc(OC)c(OC)c(OC)c3)nccc2cc1O [A-1, 7-methoxy-1-(3,4,5-trimethoxyphenyl)isoquinolin-6-ol]

SMILES: COc1cc2c(-c3cc(OC)c(OC)c(OC)c3)nccc2cc1OP(=O)([O-])[O-].[Na+].[Na+] [A-2, disodium 7-methoxy-1-(3,4,5-trimethoxyphenyl)isoquinolin-6-yl phosphate]
- microtubule network perturbation ([11]; phosphate): pronounced disorganisation and destruction of the microtubule network
- time until the comets stopped and vanished [12]: ≤ 0.5 min
- pIC50 ([5]; HeLa, 48 h): 6.89
- cell cycle effect [13]: extensive cell cycle arrest leading to accumulation of cells in the G2/M phase; also recorded: dose-dependently causes accumulation of cells at the G2/M phase
- tolerability ([14]; repeated dosage 25 mg/kg i.p., 3 administrations at 48-hour intervals, Balb/c mice): tolerated compound administration
- tolerability ([14]; repeated dosage 25 mg/kg i.v., 3 administrations at 48-hour intervals, Balb/c mice): tolerated compound administration
- tolerability ([14]; single dosage 31.5 mg/kg i.p., male and female Balb/c mice): tolerated by all mice tested
- tolerability ([14]; single dosage 50 mg/kg i.v., male and female Balb/c mice): tolerated by all mice tested

- pIC50 [1]: 6.55
SMILES: COc1ccc2ccnc(-c3cc(OC)c(OC)c(OC)c3)c2c1 [A-3, 7-methoxy-1-(3,4,5-trimethoxyphenyl)isoquinoline]
- microtubule network perturbation [11]: pronounced disorganisation and destruction of the microtubule network

SMILES: Cn1c(=O)c2c(ncn2C)n(C)c1=O [caffeine, reference compound]
- degradation [8]: < 10%
